Where two headings read alike, the source gives them in different places.
Test system: Uncinula necator
Test: Uncinula necator/Grape (powdery mildew on grape), preventive spray test on grape seedlings
Format: in vivo
Conditions: Erysiphe necator
Description: A synergistic effect exists whenever the action of an active ingredient combination is greater than the sum of the actions of the individual components. The action to be expected E for a given active ingredient combination obeys the so-called COLBY formula and can be calculated as follows (COLBY, S. R. “Calculating synergistic and antagonistic responses of herbicide combination”, Weeds, Vol. 15, pages 20-22; 1967): ppm=milligrams of active ingredient (=a.i.) per liter of spray mixture X=% action by active ingredient (A) using p ppm of active ingredient Y=% action by active ingredient (B) using q ppm of active ingredient. According to COLBY, the expected (additive) action of active ingredients (A)+(B) using p+q ppm of active ingredient is [formula] If the action actually observed (O) is greater than the expected action (E), then the action of the combination is super-additive, i.e. there is a synergistic effect. In mathematical terms, synergism corresponds to a positive value for the difference of (O-E). In the case of purely complementary addition of activities (expected activity), said difference (O-E) is zero. A negative value of said difference (O-E) signals a loss of activity compared to the expected activity. Uncinula necator/Grape (Powdery Mildew on Grape) Five-week-old grape seedlings cv. Gutedel were treated with the formulated testcompound in a spray chamber. One day after application grape plants were inoculated by shaking plants infected with grape powdery mildew above the test plants. After an incubation period of 7 days at 26° C. and 60% r. h. under a light regime of 14/10 h (light/dark) the disease incidence was assessed.

Structure (SMILES)	inhibition at 1 pg/mL (Flutianil 0.000001 mg/l alone) [%]	inhibition at 10 pg/mL (Flutianil 0.00001 mg/l alone, read-out: Flutianil Inhibition (%)) [%]	inhibition at 0.0001 µg/mL (Flutianil 0.0001 mg/l alone, read-out: Flutianil Inhibition (%)) [%]	inhibition at 0.001 µg/mL (Flutianil 0.001 mg/l alone, read-out: Flutianil Inhibition (%)) [%]	inhibition at 0.01 µg/mL (Flutianil 0.01 mg/l alone, read-out: Flutianil Inhibition (%)) [%]	inhibition at 0.1 µg/mL (168 h, Compound 1.001 0.1 mg/l alone, grape seedlings cv. Gutedel, 7 days after inoculation) [%]	inhibition at 10 pg/mL (Compound 1.001 0.00001 mg/l alone, read-out: Compound 1.001 inhibition (%)) [%]	inhibition at 0.0001 µg/mL (Compound 1.001 0.0001 mg/l alone, read-out: Compound 1.001 inhibition (%)) [%]	inhibition at 0.001 µg/mL (Compound 1.001 0.001 mg/l alone, read-out: Compound 1.001 inhibition (%)) [%]	inhibition at 0.01 µg/mL (Compound 1.001 0.01 mg/l alone, read-out: Compound 1.001 inhibition (%)) [%]
COc1ccccc1N1CCS/C1=C(/C#N)Sc1cc(C(F)(F)F)ccc1F [Flutianil, (2Z)-{[2-fluoro-5-(trifluoromethyl)phenyl]sulfanyl}[3-(2-methoxyphenyl)-1,3-thiazolidin-2-ylidene]acetonitrile]	0	1.3	1	26.8	100	–	–	–	–	–
CON(C(=O)c1cn(C)nc1C(F)F)C(C)Cc1c(Cl)cc(Cl)cc1Cl (stereo not shown) [Compound 1.001, 3-(difluoromethyl)-N-methoxy-1-methyl-N-[1-methyl-2-(2,4,6-trichlorophenyl)ethyl]pyrazole-4-carboxamide]	–	–	–	–	–	90.4	0	0	1.7	12.9

From patent publication US20180244625A1, “FUNGICIDAL COMPOSITIONS” (Syngenta Participations AG, priority 2015, published 2018)
